The values below come from patent US20100130474A1 (WYETH, priority 2008, published 2010).

Molecules are shown by their SMILES. Where a name gives a salt, the structure may show the parent alone.

Series [1] is described as follows: hygroscopicity / Dynamic Vapor Sorption (DVS) of hydrochloride salt crystal forms. The format is physicochemical. The settings on record: for Hygroscopicity: hydrochloride salt of Example 4, result in words; for water uptake: at RH 50%; for water absorbed eventually: RH of 90%. The protocol: Differential scanning calorimetry data were collected for each solid form achieved using a DSC (TA instruments, model Q1000) under the following parameters: 50 mL/min purge gas (N2); scan range 40 to 200° C., scan rate 10° C./min. Thermogravimetric analysis data were collected using a TGA instruments (Mettler Toledo, model TGA/SDTA 851e) under the following parameters: 40 ml/min purge gas (N2); scan range 30 to 250° C., scan rate 10° C./min. X-ray data were acquired using an X-ray powder diffractometer (Bruker-axs, model D8 advance) having the following parameters: voltage 40 kV, current 40.0 mA, scan range (2) 5 to 30°, scan step size 0.01°, total scan time 33 minutes, VANTEC detector, and antiscattering slit 1 mm. FIGS. 1-7 show characterization data for hydrochloride salt forms.
Dynamic Vapor Sorption (DVS) was done at 26° C.

For the next series, the target named is T1, rat-alpha 7-nAChR (Rattus norvegicus, UniProt Q05941).
T1 construct: expressed in transfected cells
Nature of the series: functional FLIPR assay, GH4C1 cells stably expressing alpha7 nAChR (intracellular calcium). The format is cell-based. The settings on record: alpha7 nAChR stably expressed in GH4C1 cells; agonist concentration range 0.001 to 30 microM.

Series [2] is described as follows: solubility in water of hydrochloride salt crystal forms. The format is physicochemical. The settings on record: result in words.

T1 sequence (Q05941 23-502): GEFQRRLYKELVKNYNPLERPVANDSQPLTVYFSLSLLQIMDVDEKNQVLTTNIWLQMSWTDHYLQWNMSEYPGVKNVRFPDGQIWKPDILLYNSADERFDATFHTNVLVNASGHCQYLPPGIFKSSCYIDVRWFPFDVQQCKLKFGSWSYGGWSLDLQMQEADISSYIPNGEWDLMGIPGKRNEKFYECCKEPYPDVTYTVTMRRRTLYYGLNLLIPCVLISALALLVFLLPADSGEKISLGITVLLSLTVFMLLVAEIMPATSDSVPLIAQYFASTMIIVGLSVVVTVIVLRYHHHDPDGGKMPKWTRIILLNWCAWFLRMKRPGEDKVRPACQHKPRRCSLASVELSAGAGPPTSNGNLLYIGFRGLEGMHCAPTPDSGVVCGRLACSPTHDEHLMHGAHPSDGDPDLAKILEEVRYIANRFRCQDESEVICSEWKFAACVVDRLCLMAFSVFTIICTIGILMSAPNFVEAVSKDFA
Source text for rat-alpha 7-nAChR: Rat GH4C1 cells were then transfected with the rat receptor, cloned and analyzed for functional alpha 7 nicotinic receptor expression employing a FLIPR assay to measure changes in intracellular calcium concentrations.
The FLIPR system allows the measurements of real time Ca^2+-concentration changes in living cells using a Ca^2+ sensitive fluorescence dye (such as Fluo4). This instrument enables the screening for agonists and antagonists for alpha 7 nAChR channels stably expressed in GH4C1 cells.
GH4C1 cells stably transfected with rat-alpha 7-nAChR (see above) were used. These cells are poorly adherent and therefore pretreatment of flasks and plates with poly-D-lysine was carried out. Cells are grown in 150 cm^2 T-flasks, filled with 30 ml of medium at 37° C. and 5% CO2.
EC50 and IC50 values were calculated using the IDBS XLfit4.1 software package employing a sigmoidal concentration-response (variable slope) equation:
The compounds were tested using the functional FLIPR primary screening assay employing the stable recombinant GH4C1 cell line expressing the alpha 7 nAChR. Hits identified were validated further by generation of concentration-response curves.

For `COc1ccc(-c2cc(NC(=O)CCCCN3CCCN(C(C)=O)CC3)[nH]n2)cc1` (as salt: hydrochloric acid salt) [5-(4-Acetyl-[1,4]diazepan-1-yl)-pentanoic acid [5-(4-methoxy-phenyl)-2H-pyrazol-3-yl]-amide], the melting point (as a rule, the temperature of the solid-liquid transition) was found to be 185 °C.
For the compound `COc1ccc(-c2cc(NC(=O)CCCCN3CCCN(C(C)=O)CC3)[nH]n2)cc1` (as salt: hydrochloride) [Example 4, 5-(4-Acetyl-[1,4]diazepan-1-yl)-pentanoic acid [5-(4-methoxy-phenyl)-2H-pyrazol-3-yl]-amide], the melting point was 132 to 133 °C.
For `COc1ccc(-c2cc(NC(=O)CCCCN3CCCN(C(C)=O)CC3)n[nH]2)cc1.Cl` [5-(4-acetyl-[1,4]diazepan-1-yl)-pentanoic acid [5-(4-methoxy-phenyl)-1H-pyrazol-3-yl]-amide hydrochloride], in series [1], the Hygroscopicity entry is on record as “extreme hygroscopicity”.
For the compound `COc1ccc(-c2cc(NC(=O)CCCCN3CCCN(C(C)=O)CC3)[nH]n2)cc1` [Crystal Form III, 5-(4-Acetyl-[1,4]diazepan-1-yl)-pentanoic acid [5-(4-methoxy-phenyl)-2H-pyrazol-3-yl]-amide], in series [1], the water uptake entry was “(10% water” and the Hygroscopicity entry is “Hygroscopic”.
For the compound `COc1ccc(-c2cc(NC(=O)CCCCN3CCCN(C(C)=O)CC3)[nH]n2)cc1` [Crystal Form V, 5-(4-Acetyl-[1,4]diazepan-1-yl)-pentanoic acid [5-(4-methoxy-phenyl)-2H-pyrazol-3-yl]-amide], in series [1], the water uptake entry is “(7% at RH” and the Hygroscopicity entry is recorded as “Hygroscopic”.
Turning to `C[N+]1(C)CCN(c2ccccc2)CC1` [DMPP], on rat-alpha 7-nAChR, the EC50 (usually the concentration giving half of the maximal effect) is 980 ± 470 nM.
Regarding `COc1ccc(-c2cc(NC(=O)CCCCN3CCCN(C(C)=O)CC3)[nH]n2)cc1` [Form I, 5-(4-acetyl-1,4-diazepan-1-yl)-N-(5-(4-methoxyphenyl)-1H-pyrazol-3-yl)pentanamide], in series [1] (DVS at 26° C.), the “relative humidity at which the form picks up moisture” value is recorded as “about 50%” and the water absorbed eventually result was “up to 2%”. The moisture gain result in series [1] (at 70-100% RH, lost without significant hysteresis on decreasing RH) was “at least 12%”. In addition, the moisture gain result in series [1] (equilibrated at RH less than or equal to 70%) is on record as “about 0.5%”. Moreover, in series [1], the Hygroscopicity result is reported as “relatively non-hygroscopic”. Also, the solubility in water result in series [2] is “considerably soluble”.
For `COc1ccc(-c2cc(NC(=O)CCCCN3CCCN(C(C)=O)CC3)[nH]n2)cc1` [Form II, 5-(4-acetyl-1,4-diazepan-1-yl)-N-(5-(4-methoxyphenyl)-1H-pyrazol-3-yl)pentanamide], in series [1] (DVS at 26° C.), the “relative humidity at which the form picks up moisture” value was “about 20%” and the water absorbed eventually result is “up to 7%”. Further, in series [1] (RH 0%, DVS at 26° C.), the “water held at low RH” value came to 2%. Moreover, the Hygroscopicity result in series [1] was “non-hygroscopic”. Moreover, the solubility in water result in series [2] was “considerably soluble”.
